In one assay the test system is U-937. Description: Cytotoxicity against human U937 cells by MTT assay. In kind it is functional, cell-based. In general terms: Formazan colour is commonly taken as a measure of viable cells.
Assay [1] is described as follows: Cytotoxicity against human Hep3B cells by MTT assay. In kind it is functional, cell-based, Hep 3B2.

Our source for the IC50 values is ChEMBL document CHEMBL1151681, “New Naphthalenyl Glucosides from the Roots of Juglans mandshurica” (J Nat Prod, 1996).

Each structure is given as a SMILES string. ≈ marks a conversion by molar mass, not a printed value.

In general, IC50 refers to the concentration at which inhibition is half-maximal. Read a low IC50 as greater potency in that assay. Turning to `O=C(OC[C@H]1O[C@@H](Oc2ccc(O)c3cccc(O)c23)[C@H](O)[C@@H](O)[C@@H]1O)c1cc(O)c(O)c(O)c1`, the IC50 in the assay on U-937 was 30 µg/mL (≈ 61.2 µM); in assay [1] it was over 100 µg/mL.
For the molecule `COc1cc(C(=O)OC[C@H]2O[C@@H](Oc3ccc(O)c4cccc(O)c34)[C@H](O)[C@@H](O)[C@@H]2O)cc(OC)c1O`, the IC50 in the assay with U-937 is 50 µg/mL (≈ 96.4 µM); in assay [1] it was over 100 µg/mL.
